Values of other authors, collected in patent publication US20080241292A1, “COMPOSITION AND METHOD FOR WEIGHT LOSS” (IOMEDIX DEVELOPMENT INTERNATIONAL SRL, priority 2006, published 2008).
Ends that are not written are not given here.

B1: Cholecystokinin (peptide, UniProt P06307 21-115, looked up)
Cholecystokinin: QPVPPADPAGSGLQRAEEAPRRQLRVSQRTDGESRAHLGALLARYIQQARKAPSGRMSIVKNLQNLDPSHRISDRDYMGWMDFGRRSAEEYEYPS
modifications: Cholecystokinin
notes: satiety signal peptide secreted from intestinal cells in response to nutrients

What was measured:
[1] = humans
[2] = exogenous administration to humans

Row | Molecule | satiety [1] | food intake [2]
1 | Glucagon-like peptide-1 (HAEGTFTSDVSSYLEGQAAKEFIAWLVKGR; ends and bridges not checked; UniProt P01275 98-127, looked up) [GLP-1, satiety signal peptide] | increase satiety | –
2 | B1 | – | reduction in food intake
